Columns and labels:
[1] = system: MEB4 cells; test: Cellular uptake of the MSF in 2D cell culture, evaluated by CLSM (Example 1); assay type: cell-based, murine; settings: 20 µM in DMF, 5 hrs
Description: (§1) Two-dimensional cell cultures were treated with the fluorescent compound (I-1) as the MSF, represented by the following formula: [drawing 22]
(§2) Diverse cell lines as well as primary skin cells such as U2OS, SHSY, A459, H4, Hek293, HepG2, HCT116, U251, MCF-7, Ratfib, HUVEC, Fibroblasts, and HeLa were treated with the MSF at a concentration of 20 µM in DMF (dimethylformamide) for 5 hrs and subsequently evaluated by means of CLSM (confocal laser scanning microscopy).
(§3) In addition, murine (MEB4) as well as human (SK-Mel28) malignant melanoma cells were treated with the MSF under the same conditions.
(§4) The experimental procedure was similar to that of Example 2, as described below.
(§5) The aforementioned cells were seeded in an ibidi® µ-slide 8 well in a density of 2x10^5/mL and cultured for two days to confluency, before being treated with the fluorescent compounds in a concentration of 20 µM in DMF (dimethylformamide). After an incubation time of 5 hrs, the adherent cell layers were washed three times with PBS (phosphate buffered saline) and the nuclei were stained with Hoechst 33342 (Invitrogen, 0.5 µg/mL, 20 min). During the microscopic studies (Leica TCS-SP-5, inverted microscope), the fluorescent compounds were excited using an Ar-laser at 488 nm. Excitation of the Hoechst dye was accomplished with an UV-Laser at 351 and 364 nm. […]

[2] = system: human melanoma cells SK-Mel28; test: Cellular uptake of fluorescent compounds by CLSM with fluorescence quantification (Example 2, Fig. 3); assay type: cell-based; settings: 20 µM in DMF, 5 hrs; for fluorescence signal: excitation 488 nm, background subtracted; for difference in the uptake between SK-Mel28 and HeLa cells: SK-Mel28 versus HeLa (negative control)
Description: The cellular uptake of the fluorescent compounds according to the present invention was studied by treatment of human melanoma cells SK-Mel28 and HeLa cells (human cervix carcinoma cell line as a negative control, common model cell line) and their investigation via CLSM (confocal laser scanning microscopy).
The aforementioned cells were seeded in an ibidi® µ-slide 8 well in a density of 2x10^5/mL and cultured for two days to confluency, before being treated with the fluorescent compounds in a concentration of 20 µM in DMF (dimethylformamide). After an incubation time of 5 hrs, the adherent cell layers were washed three times with PBS (phosphate buffered saline) and the nuclei were stained with Hoechst 33342 (Invitrogen, 0.5 µg/mL, 20 min). During the microscopic studies (Leica TCS-SP-5, inverted microscope), the fluorescent compounds were excited using an Ar-laser at 488 nm. Excitation of the Hoechst dye was accomplished with an UV-Laser at 351 and 364 nm. Due to the overlap of the emission spectra of both dyes, a sequential mode was chosen for recording the cell images.
The resulting cell images were analyzed in terms of fluorescence quantification at 488 nm excitation using the software imaged 1.50i (Wayne Rasband, National Institutes of Health, USA).
From each cell image, five cells were selected as regions of interest and the related fluorescence signals were quantified (mean value and standard deviation). Additionally, three cell-free regions were selected in each cell image as background and the resulting background signal from these regions was subtracted from the cell signal.

[3] = system: HeLa cells; test: Cellular uptake of the MSF in 2D cell culture, evaluated by CLSM (Example 1), non-affected control cells; assay type: cell-based, human; settings: 20 µM in DMF, 5 hrs
Description: as §1, §2, §3, §4, §5

SMILES | fluorescence generated by the MSF in CLSM images ([1]; MEB4 cells, Fig. 2) | uptake by the cells ([1]; MEB4 malignant melanoma cells) | fluorescence signal [2] | difference in the uptake between SK-Mel28 and HeLa cells [2] | fluorescence originating from the MSF in CLSM images ([3]; HeLa cells, Fig. 1) | uptake by the cells ([3]; HeLa non-affected cells)
O=C(c1ccccc1-c1c2ccc(=O)cc-2oc2cc(O)ccc12)N1CCN(C(=O)C2(F)C#CCCCCC2)CC1 (stereo not shown) [I-1] | can be recognized throughout the cytoplasm | effectively been taken up | high fluorescence signal | large difference in the uptake | no fluorescence apparent | not significantly been taken up
O=C(c1ccc(OC2C#CCCCCC2)cc1)N1CCN(C(=O)c2ccccc2-c2c3ccc(=O)cc-3oc3cc(O)ccc23)CC1 (stereo not shown) [I-14] | – | – | slightly weaker fluorescence signals | significant differences in the uptake | – | –
O=C(OCC1CSCC#CCO1)N1CCN(C(=O)c2ccccc2-c2c3ccc(=O)cc-3oc3cc(O)ccc23)CC1 (stereo not shown) [I-17] | – | – | slightly weaker fluorescence signals | significant differences in the uptake | – | –
O=C(c1ccccc1-c1c2ccc(=O)cc-2oc2cc(O)ccc12)N1CCN(C(=O)C23CC4CC(CC(C4)C2)C3)CC1 [I-18] | – | – | slightly weaker fluorescence signals | significant differences in the uptake | – | –
O=C(c1ccc2[nH]ccc2c1)N1CCN(C(=O)c2ccccc2-c2c3ccc(=O)cc-3oc3cc(O)ccc23)CC1 [I-20] | – | – | slightly weaker fluorescence signals | significant differences in the uptake | – | –
O=C(NCCCCNC(=O)C1(F)C#CCCCCC1)c1ccc(-c2c3ccc(=O)cc-3oc3cc(O)ccc23)c(C(=O)O)c1 (stereo not shown) [I-25] | – | – | slightly weaker fluorescence signals | significant differences in the uptake | – | –

From patent EP3373009A1, “FLUORESCENT COMPOUNDS FOR THE DETECTION OF MALIGNANT MELANOMA” (Karlsruher Institut für Technologie, priority 2017, dated 2018)
